Experiments:
Test in all cases: relative viability (nuclei count vs DMSO), 5 days (fraction); higher = more cells survive
AT9283 + AZD7762 = compound: O=C(Nc1c[nH]nc1-c1nc2ccc(CN3CCOCC3)cc2[nH]1)NC1CC1 [AT9283] + NC(=O)Nc1cc(-c2cccc(F)c2)sc1C(=O)N[C@H]1CCCNC1 [AZD7762] (partner 0.2 µM)
Procedure, shortened: (§1)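 One day after seeding in 1536-well plates, lung cancer cell lines were dosed by pin tool. Dosing was either single-drug or a fixed anchor-drug dose plus five library-drug doses (not always all listed) in √10 steps. After 5 days, nuclei were stained in one fix-and-stain step and counted on 4× images, and relative viability is the nuclei count of treated wells over that of vehicle wells, given as the median of duplicate plates.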

AT9283 + Palbociclib = compound: O=C(Nc1c[nH]nc1-c1nc2ccc(CN3CCOCC3)cc2[nH]1)NC1CC1 [AT9283] + CC(=O)c1c(C)c2cnc(Nc3ccc(N4CCNCC4)cn3)nc2n(C2CCCC2)c1=O [Palbociclib] (partner 0.5 µM)
Procedure, shortened: as §1

AT9283 + Olaparib = compound: O=C(Nc1c[nH]nc1-c1nc2ccc(CN3CCOCC3)cc2[nH]1)NC1CC1 [AT9283] + O=C(c1cc(Cc2n[nH]c(=O)c3ccccc23)ccc1F)N1CCN(C(=O)C2CC2)CC1 [Olaparib] (partner 8 µM)
Procedure, shortened: as §1

Erlotinib + Vorinostat = compound: C#Cc1cccc(Nc2ncnc3cc(OCCOC)c(OCCOC)cc23)c1 [Erlotinib] + O=C(CCCCCCC(=O)Nc1ccccc1)NO [Vorinostat] (partner 1 µM)
Procedure, shortened: as §1

Erlotinib + Navitoclax = compound: C#Cc1cccc(Nc2ncnc3cc(OCCOC)c(OCCOC)cc23)c1 [Erlotinib] + CC1(C)CCC(c2ccc(Cl)cc2)=C(CN2CCN(c3ccc(C(=O)NS(=O)(=O)c4ccc(N[C@H](CCN5CCOCC5)CSc5ccccc5)c(S(=O)(=O)C(F)(F)F)c4)cc3)CC2)C1 [Navitoclax] (partner 0.5 µM)
Procedure, shortened: as §1

Cell Line	relative viability (AT9283 + AZD7762; first compound 0.003 µM)	relative viability (AT9283 + AZD7762; first compound 0.03 µM)	relative viability (AT9283 + AZD7762; first compound 0.09487 µM)	relative viability (AT9283 + AZD7762; first compound 0.3 µM)	relative viability (AT9283 + Palbociclib; first compound 0.003 µM)	relative viability (AT9283 + Palbociclib; first compound 0.03 µM)	relative viability (AT9283 + Palbociclib; first compound 0.09487 µM)	relative viability (AT9283 + Palbociclib; first compound 0.3 µM)	relative viability (AT9283 + Olaparib; first compound 0.003 µM)	relative viability (AT9283 + Olaparib; first compound 0.03 µM)	relative viability (AT9283 + Olaparib; first compound 0.09487 µM)	relative viability (AT9283 + Olaparib; first compound 0.3 µM)	relative viability (Erlotinib + Vorinostat; first compound 0.02 µM)	relative viability (Erlotinib + Vorinostat; first compound 0.2 µM)	relative viability (Erlotinib + Vorinostat; first compound 0.6325 µM)	relative viability (Erlotinib + Vorinostat; first compound 2 µM)	relative viability (Erlotinib + Navitoclax; first compound 0.02 µM)	relative viability (Erlotinib + Navitoclax; first compound 0.2 µM)	relative viability (Erlotinib + Navitoclax; first compound 0.6325 µM)	relative viability (Erlotinib + Navitoclax; first compound 2 µM)
NCI-H650	0.814	0.923	0.373	0.227	0.314	0.334	0.209	0.122	0.396	0.399	0.215	0.146	0.487	0.496	0.59	0.449	–	–	–	–
NCI-H522	0.626	0.582	0.399	0.37	0.945	0.731	0.577	0.585	0.619	0.553	0.453	0.575	0.949	0.832	0.869	0.762	–	–	–	–
Calu-6	–	–	–	–	–	–	–	–	0.575	0.228	0.178	0.197	–	–	–	–	0.919	0.803	0.781	0.759
NCI-H2009	–	–	–	–	0.235	0.174	0.0777	0.032	0.716	0.636	0.458	0.0682	0.758	0.713	0.775	0.667	1.25	1.24	1.24	1.19
EBC-1	–	–	–	–	–	–	–	–	0.669	0.334	0.18	0.145	–	–	–	–	0.404	0.466	0.363	0.34
NCI-H596	1.01	1.2	0.976	0.595	–	–	–	–	0.653	0.663	0.619	0.567	0.683	0.636	0.606	0.583	1.02	0.751	1.06	0.813
SK-LU-1	–	–	–	–	0.416	0.373	0.279	0.283	0.495	0.479	0.259	0.258	1.01	0.729	0.899	0.718	1.07	1.36	0.752	0.733
SW 900	0.478	1.15	0.545	0.271	0.462	0.542	0.368	0.253	0.882	0.783	0.507	0.312	0.683	0.439	0.523	0.448	–	–	–	–
COR-L23	–	–	–	–	0.286	0.141	0.11	0.121	0.331	0.156	0.115	0.137	0.583	0.423	0.489	0.362	1.16	1.04	1.08	1
A549	–	–	–	–	–	–	–	–	0.358	0.0601	0.0514	0.069	–	–	–	–	1.1	1.26	1.33	1.06
SW 1573	–	–	–	–	0.333	0.158	0.173	0.121	0.485	0.159	0.159	0.14	0.652	0.605	0.824	0.405	0.922	1.05	–	0.896
NCI-H1650	–	–	–	–	0.38	0.404	0.242	0.237	0.759	0.808	0.693	0.48	0.556	0.559	0.488	0.411	1.15	1.23	1.14	0.924
SK-MES-1	–	–	–	–	0.365	0.311	0.255	0.2	0.783	0.677	0.415	0.144	1.14	0.619	0.672	0.491	1.35	1.21	–	0.574
NCI-H2023	–	–	–	–	0.417	0.327	0.258	0.139	0.511	0.409	0.21	0.0856	0.754	0.475	0.645	0.47	1.01	1.02	0.916	0.837
NCI-H661	–	–	–	–	0.44	0.368	0.329	0.368	0.759	0.499	0.371	0.418	0.834	0.758	0.775	0.646	–	–	–	–
NCI-H2342	0.439	0.364	0.36	0.4	0.505	0.535	0.502	0.449	0.476	0.434	0.384	0.292	0.615	0.851	0.801	0.789	–	–	–	–
NCI-H1703	0.12	0.108	0.0955	0.106	–	–	–	–	0.383	0.155	0.169	0.229	–	–	–	–	1.1	1.09	1.32	1.11
NCI-H2228	–	–	–	–	0.588	0.492	0.351	0.149	0.675	0.455	0.228	0.153	0.649	0.591	0.458	0.476	1.28	0.909	0.679	0.676
NCI-H1299	–	–	–	–	–	–	–	–	0.911	0.657	0.366	0.316	–	–	–	–	1.11	1.08	1.06	0.981
NCI-H358	0.431	0.178	0.186	0.175	0.191	0.0774	0.0806	0.0739	0.513	0.202	0.091	0.105	0.693	0.292	0.419	0.221	–	–	–	–
NCI-H1648	0.465	0.631	0.368	0.37	0.247	0.262	0.242	0.297	0.636	0.584	0.254	0.461	0.528	0.304	0.501	0.278	–	–	–	–
NCI-H520	–	–	–	–	0.238	0.2	0.142	0.127	0.32	0.205	0.223	0.22	0.718	0.693	0.83	0.71	1.17	1.11	1.29	1.12

Source: the supplement of paper PMC10307832
